# Laboratory results as given in US6403600B1, “Methoximinophenylacetic acid amides” (Bayer Aktiengesellschaft, priority 1998, dated 2002).
# Test: logP determination by HPLC (EEC-Directive 79/831 Annex V. A8)
# Format: physicochemical
# Settings: gradient method, acetonitrile/0.1% aqueous phosphoric acid
chromatographic logP,logP,Compound
4.25,–,"CON=C(C(=O)N(C)SC(=O)OC)c1ccccc1COc1ccccc1C [Example 1, 2-methoximino-2-[2-(methylphenoxy)-methylphenyl]-N-methyl-N-methoxycarbonylthio-acetamide]"
5.1,–,"CON=C(C(=O)N(C)SC(F)(Cl)Cl)c1ccccc1Oc1ncnc(Oc2ccccc2Br)c1F [Example 2, 2-{2-[6-(2-bromo-phenoxy)-5-fluoro-pyrimidin-4-yloxy]-phenyl}-N-(dichlorofluoro-methyl-sulphanyl)-2-methoxyimino-N-methylacetamide]"
–,5.05,CON=C(C(=O)N(C)SC(F)(Cl)Cl)c1ccccc1Oc1ncnc(Oc2ccccc2Cl)c1F [Example 3]
–,3.34,CON=C(C(=O)NC#N)c1ccccc1COc1ccccc1C [Example 4]
–,5.35,CON=C(C(=O)N(C)SC(F)(Cl)Cl)c1ccccc1COc1ccccc1C [Example 5]
–,5.56,CON=C(C(=O)N(C)SC(Cl)(Cl)Cl)c1ccccc1COc1ccccc1C [Example 6]
–,5.11,CON=C(C(=O)N(C)Sc1ccc(F)cc1)c1ccccc1COc1ccccc1C [Example 7]
–,4.24,CON=C(C(=O)N(C)SN(C)C(=O)OC)c1ccccc1COc1ccccc1C [Example 8]
–,6.83,CCCCN(CCCC)SN(C)C(=O)C(=NOC)c1ccccc1COc1ccccc1C [Example 9]
–,3.67,CON=C(C(=O)N(C)C#N)c1ccccc1COc1ccccc1C [Example 10]
–,4.98,CON=C(C(=O)N(C)Sc1ccc(OC)cc1)c1ccccc1COc1ccccc1C [Example 11]
–,4.46,CCOC(=O)N(C)C(=O)C(=NOC)c1ccccc1COc1ccccc1C [Example 12]
–,4.89,CON=C(C(=O)N(C)Sc1ccc(C(=O)OC)cc1)c1ccccc1COc1ccccc1C [Example 13]
–,5.21,CON=C(C(=O)N(C)C(=O)OCC(C)C)c1ccccc1COc1ccccc1C [Example 14]
–,4.53,CCCCOP(=O)(OC)N(C)C(=O)C(=NOC)c1ccccc1COc1ccccc1C (stereo not drawn) [Example 15]
–,5.08,CON=C(C(=O)N(C)C(=O)N(C)SC(F)(Cl)Cl)c1ccccc1COc1ccccc1C [Example 16]
–,3.38,CON=C(C(=O)N(C)C(=O)N(C)C)c1ccccc1COc1ccccc1C [Example 17]
–,3.82,CON=C(C(=O)N(C)S(C)(=O)=O)c1ccccc1COc1ccccc1C [Example 18]
–,4.02,CCOCN(C)C(=O)C(=NOC)c1ccccc1COc1ccccc1C [Example 19]
–,5.53,CON=C(C(=O)N(C)Sc1ccc(Cl)cc1)c1ccccc1COc1ccccc1C [Example 20]
–,5.11,CON=C(C(=O)N(C)Sc1ccccc1)c1ccccc1COc1ccccc1C [Example 21]

chromatographic logP,logP,Compound
–,5.5,CON=C(C(=O)N(C)Sc1cccc(C(F)(F)F)c1)c1ccccc1COc1ccccc1C [Example 22]
–,5.99,CON=C(C(=O)N(C)Sc1ccc(OC(F)(F)F)c(Cl)c1)c1ccccc1COc1ccccc1C [Example 23]
–,5.45,CON=C(C(=O)N(C)Sc1ccc(C)cc1)c1ccccc1COc1ccccc1C [Example 24]
–,5.8,CON=C(C(=O)N(C)Sc1ccc(Cl)c(C(F)(F)F)c1)c1ccccc1COc1ccccc1C [Example 25]
–,3.96,CON=C(C(=O)N(C)C(=O)C(=O)OC)c1ccccc1COc1ccccc1C [Example 26]
–,4.91,CCSC(=O)N(C)C(=O)C(=NOC)c1ccccc1COc1ccccc1C [Example 27]
–,4.32,CON=C(C(=O)NSC(F)(Cl)Cl)c1ccccc1COc1ccccc1C [Example 28]
–,4.42,CCOC(=O)N(C(=O)OCC)C(=O)C(=NOC)c1ccccc1COc1ccccc1C [Example 29]
–,5.35,CCOC(=O)N(SC(F)(Cl)Cl)C(=O)C(=NOC)c1ccccc1COc1ccccc1C [Example 30]
–,3.29,CNC(=O)N(C)C(=O)C(=NOC)c1ccccc1COc1ccccc1C [Example 31]
–,5.74,CON=C(C(=O)N(C)SC(F)(Cl)Cl)c1ccccc1CON=C(C)c1cccc(C(F)(F)F)c1 [Example 32]
–,4.11,CON=C(C(=O)N(C)C(=O)OC)c1ccccc1COc1ccccc1C [Example 33]
–,6.21,CON=C(C(=O)N(C)C(=O)N(SC(F)(Cl)Cl)c1ccc(Cl)cc1)c1ccccc1COc1ccccc1C [Example 34]
–,4.05,CCS(=O)(=O)N(C)C(=O)N(C)C(=O)C(=NOC)c1ccccc1COc1ccccc1C [Example 35]
–,3.32,CON=C(C(=O)N(C)C(=O)N1CCOCC1)c1ccccc1COc1ccccc1C [Example 36]
–,4.6,CON=C(C(=O)N(C)C(=O)OCCBr)c1ccccc1COc1ccccc1C [Example 37]
–,4.91,CCOC(=O)N(C)C(=O)C(=NOC)c1ccccc1CON=C(C)c1cccc(C(F)(F)F)c1 [Example 38]
–,4.58,CCOCN(C)C(=O)C(=NOC)c1ccccc1CON=C(C)c1cccc(C(F)(F)F)c1 [Example 39]
–,4.75,CON=C(C(=O)N(C)SC(=O)OC)c1ccccc1CON=C(C)c1cccc(C(F)(F)F)c1 [Example 40]
–,3.59,CCOC(=O)N(C)C(=O)C(=NOC)c1ccccc1Oc1ccccc1 [Example 41]
–,3.36,CCOCN(C)C(=O)C(=NOC)c1ccccc1Oc1ccccc1 [Example 42]

chromatographic logP,logP,Compound
–,3.59,CON=C(C(=O)N(C)SC(=O)OC)c1ccccc1Oc1ccccc1 [Example 43]
–,5.87,CON=C(C(=O)N(C)SC(F)(Cl)Cl)c1ccccc1Oc1ccc(OC(F)(F)F)cc1Cl [Example 44]
6.1,–,CON=C(C(=O)N(C)SN(C)C(=O)C(=NOC)c1ccccc1COc1ccccc1C)c1ccccc1COc1ccccc1C [Example 45]
–,4.75,CON=C(C(=O)N(C)SC(F)(Cl)Cl)c1ccccc1Oc1ccccc1 [Example 47]
–,4.31,CON=C(C(=O)N(C)Sc1ccc(OC)cc1)c1ccccc1Oc1ccccc1 [Example 48]
–,4.53,CON=C(C(=O)N(C)C(=O)N(C)SC(F)(Cl)Cl)c1ccccc1Oc1ccccc1 [Example 49]
–,4.38,CON=C(C(=O)N(C)SC(F)(F)F)c1ccccc1Oc1ccccc1 [Example 50]
–,6.61,CON=C(C(=O)N(SC(F)(Cl)Cl)SC(F)(Cl)Cl)c1ccccc1COc1ccccc1C [Example 51]
–,4.55,CCSN(C)C(=O)C(=NOC)c1ccccc1COc1ccccc1C [Example 52]
–,5.74,CCN(SC(F)(Cl)Cl)C(=O)C(=NOC)c1ccccc1COc1ccccc1C [Example 53]
–,4.22,CON=C(C(=O)N(C)SC)c1ccccc1COc1ccccc1C [Example 54]
–,5.05,CON=C(C(=O)N(C)SC(C)(C)C)c1ccccc1COc1ccccc1C [Example 55]
–,4.93,CON=C(C(=O)N(C)SC(F)(F)F)c1ccccc1COc1ccccc1C [Example 56]
–,4.62,CON=C(C(=O)N(C)SC(C)(F)F)c1ccccc1COc1ccccc1C [Example 57]
–,5.59,CCSCc1ccccc1OCc1ccccc1C(=NOC)C(=O)N(C)SC(F)(Cl)Cl [Example 58]
–,4.75,CON=C(C(=O)N(C)C(=O)N(C)SC(F)(F)F)c1ccccc1COc1ccccc1C [Example 59]
–,5.58,CON=C(C(=O)N(SC(F)(Cl)Cl)C1CC1)c1ccccc1COc1ccccc1C [Example 60]
–,5.17,CON=C(C(=O)N(SC(F)(F)F)C1CC1)c1ccccc1COc1ccccc1C [Example 61]
–,5.3,CCN(SC(F)(F)F)C(=O)C(=NOC)c1ccccc1COc1ccccc1C [Example 62]
–,5.77,CON=C(C(=O)N(C)SC(F)(Cl)Cl)c1ccccc1COc1cccc(-c2ccccc2)c1 [Example 65]
–,5.36,CON=C(C(=O)N(C)SC(F)(F)F)c1ccccc1COc1cccc(-c2ccccc2)c1 [Example 66]

chromatographic logP,logP,Compound
–,5.68,CON=C(C(=O)N(C)SC(F)(Cl)Cl)c1ccccc1COc1cc(C)ccc1C [Example 67]
–,5.25,CON=C(C(=O)N(C)SC(F)(F)F)c1ccccc1COc1cc(C)ccc1C [Example 68]
–,4.86,CON=C(C(=O)N(C)SC(F)(Cl)Cl)c1ccccc1COc1cc(F)ccc1F [Example 69]
–,4.48,CON=C(C(=O)N(C)SC(F)(F)F)c1ccccc1COc1cc(F)ccc1F [Example 70]
–,4.73,CON=C(C(=O)N(C)SC)c1ccccc1CON=C(C)c1cccc(C(F)(F)F)c1 [Example 71]
–,5.48,CON=C(C(=O)N(C)Sc1ccccc1)c1ccccc1CON=C(C)c1cccc(C(F)(F)F)c1 [Example 72]
–,5.02,CCSN(C)C(=O)C(=NOC)c1ccccc1CON=C(C)c1cccc(C(F)(F)F)c1 [Example 73]
–,5.84,CON=C(C(=O)N(C)Sc1cccc(C(F)(F)F)c1)c1ccccc1CON=C(C)c1cccc(C(F)(F)F)c1 [Example 74]
–,5.36,CON=C(C(=O)N(C)SC(F)(F)F)c1ccccc1CON=C(C)c1cccc(C(F)(F)F)c1 [Example 75]
–,5.22,CON=C(C(=O)N(C)C(=O)N(C)SC(F)(F)F)c1ccccc1CON=C(C)c1cccc(C(F)(F)F)c1 [Example 76]
–,5.79,CON=C(C(=O)N(C)SC(F)(Cl)Cl)c1ccccc1CON=C(C)c1cccc(Cl)c1 [Example 77]
–,5.39,CON=C(C(=O)N(C)SC(F)(F)F)c1ccccc1CON=C(C)c1cccc(Cl)c1 [Example 78]
–,4.7,CON=C(C(=O)N(C)SC(F)(Cl)Cl)c1ccccc1CON=C(C)c1ccc(OC)c(OC)c1 [Example 79]
–,4.36,CON=C(C(=O)N(C)SC(F)(F)F)c1ccccc1CON=C(C)c1ccc(OC)c(OC)c1 [Example 80]
–,4.71,CON=C(C(=O)N(C)SC(=O)OC)c1ccccc1CON=C(C)c1cccc(Cl)c1 [Example 81]
–,3.7,CON=C(C(=O)N(C)SC(=O)OC)c1ccccc1CON=C(C)c1ccc(OC)c(OC)c1 [Example 82]
–,5.36,CON=C(C(=O)N(C)SC(F)(Cl)Cl)c1ccccc1CON=C(C)c1cccc(F)c1 [Example 83]
–,4.97,CON=C(C(=O)N(C)SC(F)(F)F)c1ccccc1CON=C(C)c1cccc(F)c1 [Example 84]
